Results published in patent publication US7696129B2, “Substituted aromatic amide derivative, intermediate thereof, agrohorticultural insecticide containing thereof and method for the use thereof” (Nihon Nohyaku Co., Ltd., priority 2001, dated 2010).

How the values were obtained:
Format in all cases: in vivo
[1] = system: Smaller Tea Tortrix (Adxophyes sp.); experiment: Test Example 3: insecticidal effect on smaller tea tortrix, tea leaf immersion; settings: 50 ppm, tea leaves immersed about 30 seconds, larvae, 25° C., humidity 70%, eight days after the inoculation
Procedure: Insecticidal Effect on Smaller Tea Tortrix (Adxophyes sp.)
Tea leaves were immersed for about 30 seconds in a liquid chemical prepared by diluting a preparation containing each compound listed in Tables 1 to 3 as an active ingredient to adjust the concentration to 50 ppm. After air-dryness, the tea leaves were placed in a plastic Petri dish with a diameter of 9 cm and inoculated with larvae of smaller tea tortrix, after which the dish was allowed to stand in a room thermostatted at 25° C. and having a humidity of 70%. Eight days after the inoculation, the dead and alive were counted and the insecticidal effect was judged according to the criterion shown in Test Example 1. The test was carried out with triplicate groups of 10 insects.

[2] = system: Common Cutworm (Spodoptera litura); experiment: Test Example 2: insecticidal effect on common cutworm, cabbage leaf immersion; settings: 50 ppm, cabbage leaf immersed about 30 seconds, second-instar larvae, 25° C., eight days after the inoculation
Description: Insecticidal Effect on Common Cutworm (Spodoptera litura)
A piece of cabbage leaf (cultivar; Shikidori) was immersed for about 30 seconds in a liquid chemical prepared by diluting a preparation containing each compound listed in Tables 4 to 9 as an active ingredient to adjust the concentration to 50 ppm. After air-dryness, it was placed in a plastic Petri dish with a diameter of 9 cm and inoculated with second-instar larvae of common cutworm, after which the dish was closed and then allowed to stand in a room thermostatted at 25° C. Eight days after the inoculation, the dead and alive were counted. The mortality was calculated according to the following equation and the insecticidal effect was judged according to the criterion shown in Test Example 1. The test was carried out with triplicate groups of 10 insects.

[3] = system: Diamond Back Moth (Plutella xylostella); experiment: Test Example 1: insecticidal effect on diamond back moth, immersion of Chinese cabbage seedling with eggs; settings: 50 ppm, seedling with eggs immersed about 30 seconds, 25° C., six days after the immersion
Description: Insecticidal Effect on Diamond Back Moth (Plutella xylostella)
Adult diamond back moths were released and allowed to oviposit on a Chinese cabbage seedling. Two days after the release, the seedling having the eggs deposited thereon was immersed for about 30 seconds in a liquid chemical prepared by diluting a preparation containing each compound listed in Tables 4 to 9 as an active ingredient to adjust the concentration to 50 ppm. After air-dryness, it was allowed to stand in a room thermostatted at 25° C. Six days after the immersion, the hatched insects were counted. The mortality was calculated according to the following equation and the insecticidal effect was judged according to the criterion shown below. The test was carried out with triplicate groups of 10 insects.

Cc1nc(C(C(F)(F)F)C(F)(F)F)ccc1NC(=O)c1cccc(I)c1C(=O)NC(C)C [8-10]
Test Example 3 (insecticidal effect, mortality criterion) [1]: A (Mortality 100%)
Test Example 2 (insecticidal effect, mortality criterion) [2]: A (Mortality 100%)
Test Example 1 (insecticidal effect, mortality criterion) [3]: A (Mortality 100%)

Cc1nc(C(C(F)(F)F)C(F)(F)F)ccc1NC(=O)c1cccc(I)c1C(=O)NC(C)(C)CS(C)(=O)=O [8-13]
Test Example 3 (insecticidal effect, mortality criterion) [1]: A (Mortality 100%)
Test Example 2 (insecticidal effect, mortality criterion) [2]: A (Mortality 100%)
Test Example 1 (insecticidal effect, mortality criterion) [3]: A (Mortality 100%)

CCN(CC)C(=O)c1c(I)cccc1C(=O)Nc1ccc(C(C(F)(F)F)C(F)(F)F)cc1C [6-1]
Test Example 3 (insecticidal effect, mortality criterion) [1]: A (Mortality 100%)
Test Example 2 (insecticidal effect, mortality criterion) [2]: A (Mortality 100%)
Test Example 1 (insecticidal effect, mortality criterion) [3]: A (Mortality 100%)

CSCC(C)NC(=O)c1c(I)cccc1C(=O)Nc1ccc(C(C(F)(F)F)C(F)(F)F)nc1C (stereo not drawn) [8-14]
Test Example 3 (insecticidal effect, mortality criterion) [1]: A (Mortality 100%)
Test Example 2 (insecticidal effect, mortality criterion) [2]: A (Mortality 100%)
Test Example 1 (insecticidal effect, mortality criterion) [3]: A (Mortality 100%)

CSCC(C)(C)NC(=O)c1c(F)cccc1C(=O)Nc1ccc(C(C(F)(F)F)C(F)(F)F)cc1C [5-16]
Test Example 3 (insecticidal effect, mortality criterion) [1]: A (Mortality 100%)
Test Example 2 (insecticidal effect, mortality criterion) [2]: A (Mortality 100%)
Test Example 1 (insecticidal effect, mortality criterion) [3]: A (Mortality 100%)

CSCC(C)(C)NC(=O)c1c(I)cccc1C(=O)Nc1ccc(C(C(F)(F)F)C(F)(F)F)nc1 [8-1]
Test Example 3 (insecticidal effect, mortality criterion) [1]: E (Mortality 49% or less)
Test Example 2 (insecticidal effect, mortality criterion) [2]: C (Mortality 89-80%)
Test Example 1 (insecticidal effect, mortality criterion) [3]: A (Mortality 100%)

CCc1cc(CC(F)(F)F)ccc1NC(=O)c1cccc(I)c1C(=O)NC(C)(C)CSC [Compound No. 5-2]
Test Example 3 (insecticidal effect, mortality criterion) [1]: A (Mortality 100%)
Test Example 2 (insecticidal effect, mortality criterion) [2]: A (Mortality 100%)
Test Example 1 (insecticidal effect, mortality criterion) [3]: A (Mortality 100%)

Cc1nc(C(C(F)(F)F)C(F)(F)F)ccc1NC(=O)c1cccc(I)c1C(=O)NC(C)COC(=O)NCc1ccccc1 (stereo not drawn) [8-27]
Test Example 3 (insecticidal effect, mortality criterion) [1]: E (Mortality 49% or less)
Test Example 2 (insecticidal effect, mortality criterion) [2]: E (Mortality 49% or less)
Test Example 1 (insecticidal effect, mortality criterion) [3]: A (Mortality 100%)

CON=CC(C)(C)NC(=O)c1c(I)cccc1C(=O)Nc1ccc(C(C(F)(F)F)C(F)(F)F)cc1C [5-26]
Test Example 3 (insecticidal effect, mortality criterion) [1]: A (Mortality 100%)
Test Example 2 (insecticidal effect, mortality criterion) [2]: C (Mortality 89-80%)
Test Example 1 (insecticidal effect, mortality criterion) [3]: A (Mortality 100%)

Cc1cc(C(C(F)(F)F)C(F)(F)F)ccc1NC(=O)c1cccc(C(F)(F)F)c1C(=O)NC(C)(C)CS(C)(=O)=O [5-43]
Test Example 3 (insecticidal effect, mortality criterion) [1]: A (Mortality 100%)
Test Example 2 (insecticidal effect, mortality criterion) [2]: A (Mortality 100%)
Test Example 1 (insecticidal effect, mortality criterion) [3]: A (Mortality 100%)

CSCC(C)(C)NC(=O)c1c(I)cccc1C(=O)Nc1ccc(C(C(F)(F)F)C(F)(F)F)cc1C(C)(C)C [5-48]
Test Example 3 (insecticidal effect, mortality criterion) [1]: E (Mortality 49% or less)
Test Example 2 (insecticidal effect, mortality criterion) [2]: E (Mortality 49% or less)
Test Example 1 (insecticidal effect, mortality criterion) [3]: A (Mortality 100%)

Cc1cc(C(C(F)(F)F)C(F)(F)F)ccc1NC(=O)c1ncccc1C(=O)NC(C)C [7-1]
Test Example 3 (insecticidal effect, mortality criterion) [1]: A (Mortality 100%)
Test Example 2 (insecticidal effect, mortality criterion) [2]: E (Mortality 49% or less)
Test Example 1 (insecticidal effect, mortality criterion) [3]: A (Mortality 100%)

COc1ccc(CNC(=O)OCC(C)NC(=O)c2c(I)cccc2C(=O)Nc2ccc(C(C(F)(F)F)C(F)(F)F)cc2C)cc1 (stereo not drawn) [5-38]
Test Example 3 (insecticidal effect, mortality criterion) [1]: A (Mortality 100%)
Test Example 2 (insecticidal effect, mortality criterion) [2]: A (Mortality 100%)
Test Example 1 (insecticidal effect, mortality criterion) [3]: A (Mortality 100%)

CSCC(C)(C)NC(=O)c1c(I)cccc1C(=O)Nc1ccc(C(C(F)(F)F)C(F)(F)F)c(Cl)c1C [5-66]
Test Example 3 (insecticidal effect, mortality criterion) [1]: A (Mortality 100%)
Test Example 2 (insecticidal effect, mortality criterion) [2]: A (Mortality 100%)
Test Example 1 (insecticidal effect, mortality criterion) [3]: A (Mortality 100%)

C[S+]([O-])CC(C)(C)NC(=O)c1c(I)cccc1C(=O)Nc1ccc(C(C(F)(F)F)C(F)(F)F)cc1Br (stereo not drawn) [5-54]
Test Example 3 (insecticidal effect, mortality criterion) [1]: A (Mortality 100%)
Test Example 2 (insecticidal effect, mortality criterion) [2]: A (Mortality 100%)
Test Example 1 (insecticidal effect, mortality criterion) [3]: A (Mortality 100%)

CSCC(C)(C)NC(=O)c1c(I)cccc1C(=O)Nc1cc(F)c(C(C(F)(F)F)C(F)(F)F)cc1C [5-63]
Test Example 3 (insecticidal effect, mortality criterion) [1]: A (Mortality 100%)
Test Example 2 (insecticidal effect, mortality criterion) [2]: A (Mortality 100%)
Test Example 1 (insecticidal effect, mortality criterion) [3]: A (Mortality 100%)

CCN(CC)C(=O)OCC(C)NC(=O)c1c(C(=O)Nc2ccc(C(C(F)(F)F)C(F)(F)F)cc2C)cccc1C(F)(F)F (stereo not drawn) [5-44]
Test Example 3 (insecticidal effect, mortality criterion) [1]: A (Mortality 100%)
Test Example 2 (insecticidal effect, mortality criterion) [2]: A (Mortality 100%)
Test Example 1 (insecticidal effect, mortality criterion) [3]: A (Mortality 100%)

CSCC(C)(C)NC(=O)c1c(I)cccc1C(=O)Nc1ccc(C(C(F)(F)F)C(F)(F)F)nc1C [8-11]
Test Example 3 (insecticidal effect, mortality criterion) [1]: A (Mortality 100%)
Test Example 2 (insecticidal effect, mortality criterion) [2]: A (Mortality 100%)
Test Example 1 (insecticidal effect, mortality criterion) [3]: A (Mortality 100%)

CSCC(C)(C)NC(=O)c1c(C(=O)Nc2ccc(C(C(F)(F)F)C(F)(F)F)cc2C)cccc1[N+](=O)[O-] [5-15]
Test Example 3 (insecticidal effect, mortality criterion) [1]: A (Mortality 100%)
Test Example 2 (insecticidal effect, mortality criterion) [2]: A (Mortality 100%)
Test Example 1 (insecticidal effect, mortality criterion) [3]: A (Mortality 100%)

C[S+]([O-])CC(C)(C)NC(=O)c1c(I)cccc1C(=O)Nc1ccc(C(C(F)(F)F)C(F)(F)F)nc1 (stereo not drawn) [8-2]
Test Example 3 (insecticidal effect, mortality criterion) [1]: E (Mortality 49% or less)
Test Example 2 (insecticidal effect, mortality criterion) [2]: E (Mortality 49% or less)
Test Example 1 (insecticidal effect, mortality criterion) [3]: A (Mortality 100%)

CSCC(C)(C)NC(=O)c1c(I)cccc1C(=O)Nc1ccc(C(C(F)(F)F)C(F)(F)F)cc1Br [5-53]
Test Example 3 (insecticidal effect, mortality criterion) [1]: A (Mortality 100%)
Test Example 2 (insecticidal effect, mortality criterion) [2]: A (Mortality 100%)
Test Example 1 (insecticidal effect, mortality criterion) [3]: A (Mortality 100%)

Cc1cc(C(C(F)(F)F)C(F)(F)F)ccc1NC(=O)c1cccc(Cl)c1C(=O)NC(C)C [5-17]
Test Example 3 (insecticidal effect, mortality criterion) [1]: A (Mortality 100%)
Test Example 2 (insecticidal effect, mortality criterion) [2]: A (Mortality 100%)
Test Example 1 (insecticidal effect, mortality criterion) [3]: A (Mortality 100%)

CSCC(C)(C)NC(=O)c1c(I)cccc1C(=O)Nc1ccc(CC(F)(F)F)cc1Cl [5-4]
Test Example 3 (insecticidal effect, mortality criterion) [1]: A (Mortality 100%)
Test Example 2 (insecticidal effect, mortality criterion) [2]: A (Mortality 100%)
Test Example 1 (insecticidal effect, mortality criterion) [3]: A (Mortality 100%)

CCc1cc(C(C(F)(F)F)C(F)(F)F)ccc1NC(=O)c1cccc(I)c1C(=O)NC(C)C [5-46]
Test Example 3 (insecticidal effect, mortality criterion) [1]: A (Mortality 100%)
Test Example 2 (insecticidal effect, mortality criterion) [2]: A (Mortality 100%)
Test Example 1 (insecticidal effect, mortality criterion) [3]: A (Mortality 100%)

CSCC(C)(C)NC(=O)c1c(I)cccc1C(=O)Nc1ccc(C(C(F)(F)F)C(F)(F)F)c(OC(C)C)c1 [5-70]
Test Example 3 (insecticidal effect, mortality criterion) [1]: E (Mortality 49% or less)
Test Example 2 (insecticidal effect, mortality criterion) [2]: E (Mortality 49% or less)
Test Example 1 (insecticidal effect, mortality criterion) [3]: A (Mortality 100%)

CC(C)NC(=O)c1c(I)cccc1C(=O)Nc1ccc(C(C(F)(F)F)C(F)(F)F)cc1 [5-9]
Test Example 3 (insecticidal effect, mortality criterion) [1]: A (Mortality 100%)
Test Example 2 (insecticidal effect, mortality criterion) [2]: A (Mortality 100%)
Test Example 1 (insecticidal effect, mortality criterion) [3]: A (Mortality 100%)

CSCC(C)(C)NC(=O)c1c(Cl)cccc1C(=O)Nc1ccc(C(C(F)(F)F)C(F)(F)F)cc1C [5-19]
Test Example 3 (insecticidal effect, mortality criterion) [1]: A (Mortality 100%)
Test Example 2 (insecticidal effect, mortality criterion) [2]: A (Mortality 100%)
Test Example 1 (insecticidal effect, mortality criterion) [3]: A (Mortality 100%)

CCNC(=O)OCC(C)NC(=O)c1c(I)cccc1C(=O)Nc1ccc(C(C(F)(F)F)C(F)(F)F)nc1C (stereo not drawn) [8-26]
Test Example 3 (insecticidal effect, mortality criterion) [1]: A (Mortality 100%)
Test Example 2 (insecticidal effect, mortality criterion) [2]: D (Mortality 79-50%)
Test Example 1 (insecticidal effect, mortality criterion) [3]: A (Mortality 100%)

Cc1cc(C(C(F)(F)F)C(F)(F)F)ccc1NC(=O)c1cccc(I)c1C(=O)NC(C)C [5-21]
Test Example 3 (insecticidal effect, mortality criterion) [1]: A (Mortality 100%)
Test Example 2 (insecticidal effect, mortality criterion) [2]: A (Mortality 100%)
Test Example 1 (insecticidal effect, mortality criterion) [3]: A (Mortality 100%)
